Target: human A2A receptor (A2AR) (Homo sapiens, UniProt P29274)
Test: Luciferase reporter assay (HEK293-A2AR-luc2p/CRE/Hygro cells, 3 nM CGS21680)
Assay type: cell-based
Details: 3 nM CGS21680, 5 h incubation
Method: HEK293 cells were maintained in Dulbecco's modified Eagle's medium (DMEM, Gibco) supplemented with 10% fetal bovine serum (FBS, Thermo Scientific), 100 units/mL penicillin (Gibco), and 0.1 mg/mL streptomycin (Gibco) in a humidified 37° C. environment with 5% C02. Plasmid encoding wild-type human A2A receptor (A2AR) (in pcDNA3.1) was synthesized by Genscript (Nanjing, China). Transfection of the plasmids was performed in 6-well plates with 4×10^5 cells using Lipofectamin 2000 (ThermoFisher Scientific) according to the instruction of the manufacturer. Cell clones that stably express A2AR were established and maintained in the same complete medium as the HEK293 cells in addition of G-418 (Gibico). Expression level of A2AR in each single cell clone was determined using immunoblotting and FACS method. HEK293-A2AR stable cells were then transfected with pGL4.29[luc2P/CRE/Hygro] (Promega) luciferase reporter plasmid for establishing the HEK293-A2AR-luc2p/CRE/Hygro stable cell line.
HEK293-A2AR-luc2p/CRE/Hygro cells were seeded at a density of 5,000 cells/well in DMEM with 1% FBS and 1 U/mL adenosine deaminase (ADA) (Sigma). After 18 h, the cells were treated with 3 nM CGS21680 plus a series dilution of A2AR antagonist, the compounds disclosed herein at the concentration of 0.1˜10000 nM, prepared in DMEM with 1% FBS. After 5 h incubation, the luciferase activity in cells were measured using the Bright-Glo Luciferase Assay System (Promega) according to manufacturer's instructions. The luminescence signal was measured using a PHERAstar FS plate reader (BMG Labtech). […] Maximal luminescence intensity was determined in the presence of 3 nM CGS21680 and was set as 100%. The IC50 value was calculated from a dose dependent inhibition curve across the range of compound concentrations.

human A2A receptor (A2AR), sequence (P29274 whole entry): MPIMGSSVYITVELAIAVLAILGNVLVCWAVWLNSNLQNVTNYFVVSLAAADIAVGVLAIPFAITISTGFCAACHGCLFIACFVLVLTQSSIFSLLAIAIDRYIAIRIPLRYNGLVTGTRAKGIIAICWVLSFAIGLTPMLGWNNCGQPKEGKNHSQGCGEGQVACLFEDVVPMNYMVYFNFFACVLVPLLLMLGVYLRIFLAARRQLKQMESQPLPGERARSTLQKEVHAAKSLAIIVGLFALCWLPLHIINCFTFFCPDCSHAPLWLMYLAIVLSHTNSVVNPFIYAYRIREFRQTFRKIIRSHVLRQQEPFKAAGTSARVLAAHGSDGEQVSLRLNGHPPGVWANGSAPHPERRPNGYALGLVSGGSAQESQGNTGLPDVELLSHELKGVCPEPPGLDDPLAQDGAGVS

Structure (SMILES) | IC50 [nM]
CCCC(C(=O)N1CCN(c2ccc(OCCOC)c(F)c2)CC1)n1ncc2c1nc(N)n1nc(-c3ccco3)nc21 (stereo not shown) [Compound A53, 2-(5-amino-2-(furan-2-yl)-7H-pyrazolo[4,3-e][1,2,4]triazolo[1,5-c]pyrimidin-7-yl)-1-(4-(3-fluoro-4-(2-methoxyethoxy)phenyl)piperazin-1-yl)pentan-1-one] | 5
CCCC(C(=O)N1CCN(c2ccc(OCCN(C)C)cc2)CC1)n1ncc2c1nc(N)n1nc(-c3ccco3)nc21 (stereo not shown) [Compound A39, 2-(5-amino-2-(furan-2-yl)-7H-pyrazolo[4,3-e][1,2,4]triazolo[1,5-c]pyrimidin-7-yl)-1-(4-(4-(2-(dimethylamino)ethoxy)phenyl)piperazin-1-yl)pentan-1-one] | 5.3
COCCOc1ccc(N2CCN(C(=O)C(c3ccccc3F)n3ncc4c3nc(N)n3nc(-c5ccco5)nc43)CC2)cc1 (single isomer, unassigned) [Compound A43a] | 16.1
CN(C)C(=O)c1cccc(N2CCN(C(=O)C(C)(c3ccccc3)n3ncc4c3nc(N)n3nc(-c5ccco5)nc43)CC2)c1 (stereo not shown) [Compound A88, 3-(4-(2-(5-amino-2-(furan-2-yl)-7H-pyrazolo[4,3-e][1,2,4]triazolo[1,5-c]pyrimidin-7-yl)-2-phenylpropanoyl)piperazin-1-yl)-N,N-dimethylbenzamide] | 7
CCCC(C(=O)N1CCN(c2ccc(OCCOC)c(F)c2F)CC1)n1ncc2c1nc(N)n1nc(-c3ccco3)nc21 (stereo not shown) [Compound A51, 2-(5-amino-2-(furan-2-yl)-7H-pyrazolo[4,3-e][1,2,4]triazolo[1,5-c]pyrimidin-7-yl)-1-(4-(2,3-difluoro-4-(2-methoxyethoxy)phenyl)piperazin-1-yl)pentan-1-one] | 4.8
COCCOc1ccc(N2CCN(C(=O)C(c3ccccc3OC)n3ncc4c3nc(N)n3nc(-c5ccco5)nc43)CC2)cc1 (single isomer, unassigned) [Compound A31a] | 8.1
CCCC(C(=O)N1CCN(c2c(F)cc(OCCOC)cc2F)CC1)n1ncc2c1nc(N)n1nc(-c3ccco3)nc21 (stereo not shown) [Compound A25, 2-(5-amino-2-(furan-2-yl)-7H-pyrazolo[4,3-e][1,2,4]triazolo[1,5-c]pyrimidin-7-yl)-1-(4-(2,6-difluoro-4-(2-methoxyethoxy)phenyl)piperazin-1-yl)pentan-1-one] | 4.5
COCCOCCOc1ccc(N2CCN(C(=O)C(c3ccccc3)n3ncc4c3nc(N)n3nc(-c5ccco5)nc43)CC2)cc1 (stereo not shown) [Compound A14, 2-(5-amino-2-(furan-2-yl)-7H-pyrazolo[4,3-e][1,2,4]triazolo[1,5-c]pyrimidin-7-yl)-1-(4-(4-(2-(2-methoxyethoxy)ethoxy)phenyl)piperazin-1-yl)-2-phenylethan-1-one] | 12.7
COCCOc1cc(F)c(N2CCN(C(=O)[C@@](C)(c3ccccc3)n3ncc4c3nc(N)n3nc(-c5ccco5)nc43)CC2)cc1F [Compound A65b, (R)-2-(5-amino-2-(furan-2-yl)-7H-pyrazolo[4,3-e][1,2,4]triazolo[1,5-c]pyrimidin-7-yl)-1-(4-(2,5-difluoro-4-(2-methoxyethoxy)phenyl)piperazin-1-yl)-2-phenylpropan-1-one] | 3.3
COCCOCCOc1ccc(N2CCN(C(=O)C(C(C)C)n3ncc4c3nc(N)n3nc(-c5ccco5)nc43)CC2)cc1 (stereo not shown) [Compound A12, 2-(5-amino-2-(furan-2-yl)-7H-pyrazolo[4,3-e][1,2,4]triazolo[1,5-c]pyrimidin-7-yl)-1-(4-(4-(2-(2-methoxyethoxy)ethoxy)phenyl)piperazin-1-yl)-3-methylbutan-1-one] | 113
COCCOc1ccc(N2CCN(C(=O)C(C3CCN(C)CC3)n3ncc4c3nc(N)n3nc(-c5ccco5)nc43)CC2)cc1 (stereo not shown) [Compound A60, 2-(5-amino-2-(furan-2-yl)-7H-pyrazolo[4,3-e][1,2,4]triazolo[1,5-c]pyrimidin-7-yl)-1-(4-(4-(2-methoxyethoxy)phenyl)piperazin-1-yl)-2-(1-methylpiperidin-4-yl)ethan-1-one] | > 10000
COCCOc1cc(F)c(N2CCN(C(=O)[C@](C)(c3ccccc3)n3ncc4c3nc(N)n3nc(-c5ccco5)nc43)CC2)cc1F [Compound A65a, (S)-2-(5-amino-2-(furan-2-yl)-7H-pyrazolo[4,3-e][1,2,4]triazolo[1,5-c]pyrimidin-7-yl)-1-(4-(2,5-difluoro-4-(2-methoxyethoxy)phenyl)piperazin-1-yl)-2-phenylpropan-1-one] | 21.4
COCCOc1ccc(N2CCN(C(=O)C(c3cccc(F)c3)n3ncc4c3nc(N)n3nc(-c5ccco5)nc43)CC2)cc1 (stereo not shown) [Compound A42, 2-(5-amino-2-(furan-2-yl)-7H-pyrazolo[4,3-e][1,2,4]triazolo[1,5-c]pyrimidin-7-yl)-2-(3-fluorophenyl)-1-(4-(4-(2-methoxyethoxy)phenyl)piperazin-1-yl)ethan-1-one] | 5.1
CC(C(=O)N1CCN(c2ccc(F)cc2F)CC1)(c1ccccc1)n1ncc2c1nc(N)n1nc(-c3ccco3)nc21 (stereo not shown) [Compound A68, 2-(5-amino-2-(furan-2-yl)-7H-pyrazolo[4,3-e][1,2,4]triazolo[1,5-c]pyrimidin-7-yl)-1-(4-(2,4-difluorophenyl)piperazin-1-yl)-2-phenylpropan-1-one] | 4.4

Second part, the compound after the results:

IC50 [nM] | Structure (SMILES)
5.7 | COCCOc1ccc2c(c1)CN(C(=O)C(c1ccccc1)n1ncc3c1nc(N)n1nc(-c4ccco4)nc31)CC2 (stereo not shown) [Compound B14, 2-(5-amino-2-(furan-2-yl)-7H-pyrazolo[4,3-e][1,2,4]triazolo[1,5-c]pyrimidin-7-yl)-1-(7-(2-methoxyethoxy)-3,4-dihydroisoquinolin-2(1H)-yl)-2-phenylethan-1-one]
29.1 | Nc1nc2c(cnn2C(C(=O)N2CCc3cc(F)ccc3C2)c2ccccc2)c2nc(-c3ccco3)nn12 (single isomer, unassigned) [Compound B7a]
16.5 | COC(=O)C1CC2(CCN(C(=O)C(C)(c3ccccc3)n3ncc4c3nc(N)n3nc(-c5ccco5)nc43)CC2)C1 (stereo not shown) [Compound B33, methyl 7-(2-(5-amino-2-(furan-2-yl)-7H-pyrazolo[4,3-e][1,2,4]triazolo[1,5-c]pyrimidin-7-yl)-2-phenylpropanoyl)-7-azaspiro[3.5]nonane-2-carboxylate]
118 | CCCCC(C(=O)N1CCN(c2ccc(OCCOCCOC)cc2)CC1)n1cc2c(nc(N)n3nc(-c4ccco4)nc23)n1 (stereo not shown) [Compound C11, 2-(5-amino-2-(furan-2-yl)-8H-pyrazolo[4,3-e][1,2,4]triazolo[1,5-c]pyrimidin-8-yl)-1-(4-(4-(2-(2-methoxyethoxy)ethoxy)phenyl)piperazin-1-yl)hexan-1-one]
2.5 | Nc1nc2c(cnn2C(C(=O)N2CCc3c(F)cccc3C2)c2ccccc2)c2nc(-c3ccco3)nn12 (stereo not shown) [Compound B12, 2-(5-amino-2-(furan-2-yl)-7H-pyrazolo[4,3-e][1,2,4]triazolo[1,5-c]pyrimidin-7-yl)-1-(5-fluoro-3,4-dihydroisoquinolin-2(1H)-yl)-2-phenylethan-1-one]
39.8 | COCCOCCOc1ccc(N2CCN(C(=O)C(C)n3cc4c(nc(N)n5nc(-c6ccco6)nc45)n3)CC2)cc1 (stereo not shown) [Compound C9, 2-(5-amino-2-(furan-2-yl)-8H-pyrazolo[4,3-e][1,2,4]triazolo[1,5-c]pyrimidin-8-yl)-1-(4-(4-(2-(2-methoxyethoxy)ethoxy)phenyl)piperazin-1-yl)propan-1-one]
24.9 | CC(C(=O)N1CCCC1)(c1ccccc1)n1ncc2c1nc(N)n1nc(-c3ccco3)nc21 (stereo not shown) [Compound B23, 2-(5-amino-2-(furan-2-yl)-7H-pyrazolo[4,3-e][1,2,4]triazolo[1,5-c]pyrimidin-7-yl)-2-phenyl-1-(pyrrolidin-1-yl)propan-1-one]
46 | CO[C@@H]1CCCN(C(=O)C(C)(c2ccccc2)n2ncc3c2nc(N)n2nc(-c4ccco4)nc32)C1 (stereo partly drawn) [Compound B31, 2-(5-amino-2-(furan-2-yl)-7H-pyrazolo[4,3-e][1,2,4]triazolo[1,5-c]pyrimidin-7-yl)-1-((R)-3-methoxypiperidin-1-yl)-2-phenylpropan-1-one]
4.1 | COCCOc1ccc(N2CCN(C(=O)C(C3CC3)n3cc4c(nc(N)n5nc(-c6ccco6)nc45)n3)CC2)cc1 (single isomer, unassigned) [Compound C16a]
30.3 | CN1CCN(C(=O)C(C)(c2ccccc2)n2ncc3c2nc(N)n2nc(-c4ccco4)nc32)CC1 (stereo not shown) [Compound B27, 2-(5-amino-2-(furan-2-yl)-7H-pyrazolo[4,3-e][1,2,4]triazolo[1,5-c]pyrimidin-7-yl)-1-(4-methylpiperazin-1-yl)-2-phenylpropan-1-one]
12 | CC(C(=O)N1CCC1)(c1ccccc1)n1ncc2c1nc(N)n1nc(-c3ccco3)nc21 (stereo not shown) [Compound B24, 2-(5-amino-2-(furan-2-yl)-7H-pyrazolo[4,3-e][1,2,4]triazolo[1,5-c]pyrimidin-7-yl)-1-(azetidin-1-yl)-2-phenylpropan-1-one]

From US20210300936A1, “PYRAZOLOTRIAZOLOPYRIMIDINE DERIVATIVES AS A2A RECEPTOR ANTAGONIST” (BEIGENE, LTD., priority 2018, published 2021)
